# According to patent US20250382344A1, “Soluble GLP1/GIP/NPY2 Receptor Triple Agonists” (Boehringer Ingelheim International GmH, priority 2024, published 2025):
# Where a SMILES comes first, the peptide text is derived from it. Side-chain parts run from the residue outwards. [ ]: non-standard residue; d: D form. The star is where a group is joined. ξ: configuration not given here. NMeY = CN[C@@H](Cc1ccc(O)cc1)C(=O)O; Palmitoyl = CCCCCCCCCCCCCCCC(=O)*; αMeF = C[C@](N)(Cc1ccccc1)C(=O)O; ξIva = CCC(C)(N)C(=O)O; Aib = CC(C)(N)C(=O)O
# Tests used:
# [1] = Solubility in 0.1 M phosphate buffer at pH 7; format: physicochemical; details: 0.1 M phosphate buffer at pH 7, 10 mg/mL final peptide concentration, shaking 2 hours at room temperature, peptides as TFA-salts; measured sample pH 6.5-7.0
# Protocol: Peptides (as TFA-salts) were weighed out in a filter unit (Mini-UniPrep Syringeless Filter 0.45 μm, Whatman PVDF), and 0.1 M phosphate buffer at pH 7 was added to achieve 10 mg/mL final peptide concentration. The peptides were dissolved by shaking the filter units horizontally at 600 rpm for 2 hours at room temperature. Samples were then filtered to remove any insoluble particles. Controls were prepared by weighing out the corresponding peptide solid material and dissolving it in an appropriate vehicle (e.g. ACN:H2O) to a final concentration of 1 mg/mL. Both, the control and sample were analyzed by reversed phase chromatography. The area under the peak of the sample was compared to the control and the solubility was calculated based on that ratio. The pH was measured and recorded for each sample.
# hGIPR = biological target: T1, hGIPR (Homo sapiens, UniProt P48546); experiment: hGIPR CreLuc assay in 0.5% and 100% plasma (CHO CRE-luciferase reporter cells); format: cell-based; details: 0.5% human plasma, read-out: hGIPR 0.5% hP
# T1 construct: expressed in transfected cells; host or cells: CHO CRE-luciferase reporter cells
# T1 sequence (P48546 22-466): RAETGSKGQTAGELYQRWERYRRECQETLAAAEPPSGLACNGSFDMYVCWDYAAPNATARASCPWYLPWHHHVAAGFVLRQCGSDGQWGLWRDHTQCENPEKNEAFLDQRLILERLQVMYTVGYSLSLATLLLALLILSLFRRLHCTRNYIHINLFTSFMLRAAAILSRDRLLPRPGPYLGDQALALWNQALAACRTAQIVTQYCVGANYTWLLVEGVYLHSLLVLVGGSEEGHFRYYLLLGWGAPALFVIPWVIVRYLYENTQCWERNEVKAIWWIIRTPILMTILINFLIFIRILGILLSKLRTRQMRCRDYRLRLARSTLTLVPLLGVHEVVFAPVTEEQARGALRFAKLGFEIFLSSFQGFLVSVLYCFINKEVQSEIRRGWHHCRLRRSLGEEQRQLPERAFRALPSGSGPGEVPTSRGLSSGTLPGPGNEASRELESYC
# Description: CHO and HEK-293 recombinant cell lines express a luciferase reporter gene under control of the CAMP responsive element (CRE). As a second recombinant protein the GLP-1 and NPY2 receptors were expressed in the reporter gene HEK cells, and the GIP receptor was expressed in the reporter gene CHO cells, respectively. Stimulation of these recombinant cells with an agonist leads to an increase of intracellular CAMP levels. In the presence of CAMP, the transcription factor CRE binding protein (CREB) binds to the CRE and to the CREB binding protein (CBP), which leads to transcription of the luciferase reporter gene. Peptides upon serial-dilution in 100% DMSO were transferred into 384-well assay plates with 5 μl pre-dispensed assay buffer (1×HBSS, 20 mM HEPES, pH7.4 supplemented with 0.5% human plasma) using acoustic dispensing on a Labcyte ECHO. Cryo-preserved transgenic reporter gene cells were thawed in assay buffer. 20 μl (10.000 cells/well) were added to the plate with the peptides and incubated for 4 hours at 37° C. in a humidified incubator. Following incubation, assay plates are equilibrated to room temperature, followed by addition of 25 μl of Bright-Glo™ Luciferase reagent, incubation at room temperature for 10 minutes and analysis of luminescence (Envision Reader). […] EC50 values were calculated by non-linear regression using sigmoid concentration-response with variable slope.
# The same assays were run in the presence of 100% plasma with no additional buffer constituents.
Compound,solubility [1],solubility at 2 h [1],EC50 (hGIPR)
"CCCCCCCCCCCCCCCC(=O)NCC(=O)NCC(=O)NCC(=O)NCC(=O)NCCCC[C@H](NC(=O)[C@H](CC(=O)O)NC(=O)[C@H](CO)NC(=O)[C@@H](NC(=O)[C@](C)(Cc1ccccc1)NC(=O)[C@@H](NC(=O)CNC(=O)[C@H](CCC(=O)O)NC(=O)C(C)(C)NC(=O)[C@H](Cc1ccc(O)cc1)NC)[C@@H](C)O)[C@@H](C)O)C(=O)N[C@@H](CO)C(=O)N[C@H](C(=O)NC(C)(C)C(=O)N[C@@H](CC(C)C)C(=O)N[C@@H](CCC(=O)O)C(=O)N[C@@H](CCCCN)C(=O)N[C@@H](CCC(N)=O)C(=O)N[C@@H](CCCNC(=N)N)C(=O)N[C@@H](CCC(N)=O)C(=O)NC(C)(CC)C(=O)N[C@@H](CCC(=O)O)C(=O)N[C@@H](Cc1ccccc1)C(=O)N[C@H](C(=O)N[C@@H](CCCNC(=N)N)C(=O)N[C@@H](Cc1c[nH]cn1)C(=O)N[C@@H](CC(C)C)C(=O)N[C@@H](CC(C)C)C(=O)N[C@@H](CC(N)=O)C(=O)N[C@@H](CCCCN)C(=O)NC(C)(C)C(=O)N[C@H](C(=O)N[C@@H](CCCNC(=N)N)C(=O)N[C@@H](CCC(N)=O)C(=O)N[C@@H](CCCNC(=N)N)C(=O)N[C@@H](Cc1ccc(O)cc1)C(N)=O)[C@@H](C)O)C(C)C)[C@@H](C)CC (stereo partly drawn) [Ref. 1, NMeY-Aib-E-G-T-aMeF-T-S-D-K(1,3)-S-I-Aib-L-E-K-Q-R-Q-Iva-E-F-V-R-H-L-L-N-K-Aib-T-R-Q-R-Y-NH2.C16A-G-G-G-G(1,2), reference compound] (H-[NMeY][Aib]EGT[αMeF]TSDK([Gly-Gly-Gly-Gly-Palmitoyl])SI[Aib]LEKQRQ[ξIva]EFVRHLLNK[Aib]TRQRY-NH2)",<1000 µg/mL,< 1000 µg/mL,–
"CC[C@H](C)[C@H](NC(=O)[C@H](CO)NC(=O)[C@H](Cc1ccc(O)cc1)NC(=O)[C@H](CC(=O)O)NC(=O)[C@H](CO)NC(=O)[C@@H](NC(=O)[C@H](Cc1ccccc1)NC(=O)[C@@H](NC(=O)CNC(=O)[C@H](CCC(=O)O)NC(=O)C(C)(C)NC(=O)[C@@H](N)Cc1ccc(O)cc1)[C@@H](C)O)[C@@H](C)O)C(=O)NC(C)(C)C(=O)N[C@@H](CC(C)C)C(=O)N[C@@H](CCC(=O)O)C(=O)N[C@@H](CCCCN)C(=O)N[C@@H](CCC(N)=O)C(=O)N[C@@H](C)C(=O)N[C@@H](CCC(N)=O)C(=O)NC(C)(C)C(=O)N[C@@H](C)C(=O)N[C@@H](Cc1ccccc1)C(=O)N[C@H](C(=O)N[C@@H](CCCNC(=N)N)C(=O)N[C@@H](Cc1c[nH]cn1)C(=O)N[C@@H](CC(C)C)C(=O)N[C@@H](CC(C)C)C(=O)N[C@@H](CC(N)=O)C(=O)N[C@@H](CCCCNC(=O)[C@@H](N)CCCCNC(=O)CC[C@H](NC(=O)CC[C@H](NC(=O)CC[C@H](NC(=O)CC[C@H](NC(=O)CC[C@H](NC(=O)CC[C@H](NC(=O)CCCCCCCCCCCCCCCCCCC(=O)O)C(=O)O)C(=O)O)C(=O)O)C(=O)O)C(=O)O)C(=O)O)C(=O)NC(C)(C)C(=O)N[C@H](C(=O)N[C@@H](CCCNC(=N)N)C(=O)N[C@@H](CCC(N)=O)C(=O)N[C@@H](CCCNC(=N)N)C(=O)N[C@@H](Cc1ccc(O)cc1)C(N)=O)[C@@H](C)O)C(C)C [Compound 80, Y-Aib-E-G-T-F-T-S-D-Y-S-I-Aib-L-E-K-Q-A-Q-Aib-A-F-V-R-H-L-L-N-K(1,3)-Aib-T-R-Q-R-Y-NH2.C20DA-gGlu-gGlu-gGlu-gGlu-gGlu-gGlu-eLys(1,2)]",–,–,1.7 nM
